Earlier results as cited in patent US20150328215A1, “STABLE AMORPHOUS RALTEGRAVIR POTASSIUM PREMIX AND PROCESS FOR THE PREPARATION THEREOF” (priority 2012, published 2015).

Legend:
[1] = in vivo
[2] = water

| SMILES | bioavailability compared with Raltegravir free base [1] | aqueous solubility [2] |
| --- | --- | --- |
| Cc1nnc(C(=O)NC(C)(C)c2nc(C(=O)NCc3ccc(F)cc3)c([O-])c(=O)n2C)o1.[K+] [Form 1] | superior bioavailability |  |
| Cc1nnc(C(=O)NC(C)(C)c2nc(C(=O)NCc3ccc(F)cc3)c(O)c(=O)n2C)o1 [Raltegravir] |  | poor aqueous solubility |
| Cc1nnc(C(=O)NC(C)(C)c2nc(C(=O)NCc3ccc(F)cc3)c([O-])c(=O)n2C)o1.[K+] [potassium salt of Raltegravir, potassium N-(4-fluorobenzyl)-5-hydroxy-1-methyl-2-(1-methyl-1-{[(5-methyl-1,3,4-oxadiazol-2-yl)carbonyl]amino}ethyl)-6-oxo-1,6-dihydropyrimidine-4-carboxamide] |  | significantly more soluble in water |
